# Measurements: PubChem BioAssay (NCI)
#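 Five concentrations, 48 hours, 96-well plates. GI50 = concentration required for 50% inhibition of growth. TGI: total growth inhibition.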
# Columns and labels:
# Assay in all cases: growth of human tumour cells (NCI), 48 h
# [1] = system: 786-0 renal
# [2] = system: A498 renal
# [3] = system: A549 NSCLC
# [4] = system: ACHN renal
# [5] = system: BT-549 breast
# [6] = system: CAKI-1 renal
# [7] = system: CCRF-CEM leukemia
# [8] = system: COLO 205 colon
# [9] = system: DU-145 prostate
# [10] = system: EKVX NSCLC
# [11] = system: HCC-2998 colon
# [12] = system: HCT-116 colon
# [13] = system: HCT-15 colon
# [14] = system: HL-60(TB) leukemia
# [15] = system: HOP-62 NSCLC
# [16] = system: HOP-92 NSCLC
# [17] = system: HS 578T breast
# [18] = system: HT29 colon
# [19] = system: IGROV1 ovarian
# [20] = system: LOX IMVI melanoma
# [21] = system: M14 melanoma
# [22] = system: MALME-3M melanoma
# [23] = system: MCF7 breast
# [24] = system: MDA-MB-231 breast
# [25] = system: MDA-MB-435
# [26] = system: MDA-MB-468 breast
# [27] = system: MOLT-4 leukemia
# [28] = system: NCI-H226 lung
# [29] = system: NCI-H23 lung
# [30] = system: NCI-H460 lung
# [31] = system: NCI-H522 lung
# [32] = system: NCI/ADR-RES ovarian
# [33] = system: OVCAR-3 ovarian
# [34] = system: OVCAR-4 ovarian
# [35] = system: OVCAR-5 ovarian
# [36] = system: OVCAR-8 ovarian
# [37] = system: PC-3 prostate
# [38] = system: RPMI-8226 leukemia
# [39] = system: RXF 393 renal
# [40] = system: SF-268 CNS
# [41] = system: SF-295 CNS
# [42] = system: SF-539 CNS
# [43] = system: SK-MEL-2 melanoma
# [44] = system: SK-MEL-28 melanoma
# [45] = system: SK-MEL-5 melanoma
# [46] = system: SK-OV-3 ovarian
# [47] = system: SN12C renal
# [48] = system: SNB-19 CNS
# [49] = system: SNB-75 CNS
# [50] = system: SR leukemia
# [51] = system: TK-10 renal
# [52] = system: U251 CNS
# [53] = system: UACC-257 melanoma
# [54] = system: UACC-62 melanoma
# [55] = system: UO-31 renal
compound,measurement,setting,value
COc1ccc2c(c1)c(-c1cc(N)n3nc(-c4c[nH]c5ccccc45)cc3n1)cn2C,GI50,[1],1610 nM
same,TGI,[1],3000 nM
same,GI50,[2],14000 nM
same,TGI,[2],27600 nM
same,GI50,[3],1860 nM
same,TGI,[3],3700 nM
same,GI50,[4],1700 nM
same,TGI,[4],3100 nM
same,GI50,[5],12800 nM
same,TGI,[5],25600 nM
same,GI50,[6],1820 nM
same,TGI,[6],3520 nM
same,GI50,[7],2140 nM
same,TGI,[7],5420 nM
same,GI50,[8],2020 nM
same,TGI,[8],3830 nM
same,GI50,[9],3290 nM
same,TGI,[9],10200 nM
same,GI50,[10],1700 nM
same,TGI,[10],3630 nM
same,GI50,[11],1630 nM
same,TGI,[11],3040 nM
same,GI50,[12],1720 nM
same,TGI,[12],3090 nM
same,GI50,[13],1310 nM
same,TGI,[13],2750 nM
same,GI50,[14],1760 nM
same,TGI,[14],3780 nM
same,GI50,[15],2020 nM
same,TGI,[15],3920 nM
same,GI50,[16],1870 nM
same,TGI,[16],3860 nM
same,GI50,[17],3110 nM
same,TGI,[17],17600 nM
same,GI50,[18],1770 nM
same,TGI,[18],3470 nM
same,GI50,[19],2030 nM
same,TGI,[19],3880 nM
same,GI50,[20],1680 nM
same,TGI,[20],3040 nM
same,GI50,[21],1720 nM
same,TGI,[21],3250 nM
same,GI50,[22],1790 nM
same,TGI,[22],3180 nM
same,GI50,[23],1680 nM
same,TGI,[23],3350 nM
same,GI50,[24],2070 nM
same,TGI,[24],3650 nM
same,GI50,[25],1830 nM
same,TGI,[25],3540 nM
same,GI50,[26],1360 nM
same,TGI,[26],2690 nM
same,GI50,[27],2050 nM
same,TGI,[27],5730 nM
same,GI50,[28],2130 nM
same,TGI,[28],5110 nM
same,GI50,[29],1720 nM
same,TGI,[29],3390 nM
same,GI50,[30],2230 nM
same,TGI,[30],5030 nM
same,GI50,[31],1780 nM
same,TGI,[31],3500 nM
same,GI50,[32],2080 nM
same,TGI,[32],5070 nM
same,GI50,[33],2020 nM
same,TGI,[33],4280 nM
same,GI50,[34],2420 nM
same,TGI,[34],5930 nM
same,GI50,[35],2050 nM
same,TGI,[35],4080 nM
same,GI50,[36],2050 nM
same,TGI,[36],4770 nM
same,GI50,[37],2560 nM
same,TGI,[37],8610 nM
same,GI50,[38],2370 nM
same,TGI,[38],5740 nM
same,GI50,[39],1500 nM
same,TGI,[39],2900 nM
same,GI50,[40],2350 nM
same,TGI,[40],5480 nM
same,GI50,[41],1580 nM
same,TGI,[41],3010 nM
same,GI50,[42],1630 nM
same,TGI,[42],2980 nM
same,GI50,[43],1860 nM
same,TGI,[43],3960 nM
same,GI50,[44],1730 nM
same,TGI,[44],3110 nM
same,GI50,[45],1680 nM
same,TGI,[45],3040 nM
same,GI50,[46],2580 nM
same,TGI,[46],6430 nM
same,GI50,[47],1870 nM
same,TGI,[47],3810 nM
same,GI50,[48],2610 nM
same,TGI,[48],6310 nM
same,GI50,[49],1760 nM
same,TGI,[49],3800 nM
same,GI50,[50],1430 nM
same,TGI,[50],6400 nM
same,GI50,[51],1760 nM
same,TGI,[51],3340 nM
same,GI50,[52],1640 nM
same,TGI,[52],3210 nM
same,GI50,[53],1840 nM
same,TGI,[53],3430 nM
same,GI50,[54],1800 nM
same,TGI,[54],3200 nM
same,GI50,[55],1610 nM
same,TGI,[55],3120 nM
